This passage reports MIC, HC50 and IC50 results from PMC10687119, “Quaternary Ammonium Salts of Cationic Lipopeptides with Lysine Residues — Synthesis, Antimicrobial, Hemolytic and Cytotoxic Activities” (Probiotics and Antimicrobial Proteins, 2023).

Series [1] deals with A. baumannii ATCC BAA 1605. Format: cell-based, Acinetobacter baumannii. Here is the method: (§1) The Acinetobacter baumannii ATCC BAA-1605, Enterococcus faecium ATCC 700221, Klebsiella aerogenes ATCC 13048, Klebsiella pneumoniae ATCC 700603, Pseudomonas aeruginosa ATCC 9027, Staphylococcus aureus ATCC 33591, Candida glabrata ATCC 15126 strains were acquired from the American Type Culture Collection (ATCC, Manassas, USA). All the strains were stored at −80 °C in Roti-Store cryo vials (Carl Roth GmbH, Germany) and before the tests were transferred into fresh Mueller–Hinton broth (MHB, Becton Dickinson, Poland) for bacteria or RPMI-1640 (Sigma-Aldrich, Germany) for fungi and incubated for 24 h at 37 °C. Then, the cultures were cultured on the Mueller–Hinton agar (BioMaxima, Poland) or Sabouraud dextrose agar (SDA, BioMaxima) plates, respectively, and incubated as just mentioned. For microbiological assays, a minimum of three to five well-isolated colonies of the same morphological type were carefully picked from the agar cultures. These colonies were transferred with sterile loop into fresh microbiological medium and incubated with shaking (100 rpm) at 37 °C until they reached logarithmic phase of growth. Cell densities for all assays were adjusted through spectrophotometric measurements (Multiskan GO Microplate Spectrophotometer, Thermo Fisher Scientific, Finland) at 600 and 530 nm for bacteria and fungi, respectively.
(§2) The MICs were determined by broth microdilution method according to the Clinical and Laboratory Standard Institute guidelines. For this purpose, initial inoculums of bacteria (5 × 10^5 CFU/mL) in MHB and yeasts (2 × 10^3 CFU/mL) in RPMI-1640 with 2% D-glucose were exposed to the ranging concentration of lipopeptides (1–512 μg/mL) and incubated at 37 °C for 18 h and 24 h, respectively. The experiments were conducted on 96-well microtiter polystyrene plates (Kartell, Italy). The growth was assessed visually after incubation and the MIC was assumed as the lowest peptide concentration at which a noticeable growth of microorganisms was inhibited. Benzalkonium chloride (Sigma-Aldrich, Germany) was used as reference compound. All experiments were conducted in triplicate.

Series [2] deals with E. faecium ATCC 700221. The class given is cell-based, Enterococcus faecium. Here is the method: as §1, §2
The subject of series [3] is C. glabrata ATCC 15126. Format: cell-based, Candida glabrata. As for the experimental part: as §1, §2
Series [4] relates to human red blood cells (RBCs). The class given is cell-based. The conditions noted are these: red cells of human. As for the experimental part:
The hemolysis assay was conducted using a procedure described previously. For this purpose, human red blood cells (RBCs) isolated from K2EDTA Single Donor Human Whole blood (Innovative Research, Inc, MI, USA) were rinsed with Phosphate-buffer saline (PBS, pH 7.4±0.05, composition - KCl 2.7 mM, NaCl 140 mM, phosphate 10mM; AppliChem GmbH, Germany) by centrifugation for 10 min at 800 × g. This process was repeated 3 times and the RBCs were resuspended in PBS. Then, the stock solution of RBCs was added to the serial dilution of lipopeptides on 96-well polystyrene plates to reach a final volume of 100 μL with a 4% concentration of erythrocytes (v/v) and a concentration range of 1-512 μg/mL of tested compounds. The control wells for 0% and 100% hemolysis consisted of RBCs suspended in PBS and 1% of Triton X-100 (Sigma-Aldrich, Germany), respectively. Benzalkonium chloride (Sigma-Aldrich, Germany) was used as reference compound. Subsequently, the plates were incubated for 60 min at 37 °C and then centrifuged at 800 × g for 10 min at 4 °C (Sorvall ST […] Centrifuge, Thermo Scientific). The supernatant was carefully […] to new microtiter plates. The release of hemoglobin was monitored absorbance measurements at 540 nm (MultiskanTM GO Microplate Spectrophotometer, Thermo Scientific). All experiments were conducted in triplicate. HC50 was calculated using an ic50.tk tool.

Series [5] has as its system P. aeruginosa ATCC 9027. Format: cell-based, Pseudomonas aeruginosa. Here is the method: as §1, §2
Series [6] concerns K. aerogenes ATCC 13048. The class given is cell-based, Klebsiella aerogenes. As for the experimental part: as §1, §2
The subject of series [7] is K. pneumoniae ATCC 700603. Format: cell-based, Klebsiella pneumoniae. As for the experimental part:
as §1, §2

Series [8] deals with human keratinocyte cell line (HaCaT). The class given is cell-based. Conditions: 24 h. Here is the method:
The immortalized human keratinocyte cell line (HaCaT), obtained from CLS (Cell Line Service, Germany) was cultured in DMEM-high glucose (Dulbecco’s Modified Eagle Medium) supplemented with 10% fetal bovine serum, 2 mM L-glutamine, 100 U/mL penicillin and 100 μg/mL streptomycin (Sigma-Aldrich; Merck KGaA) at 37 °C in a humidified atmosphere with 5% CO2. Cells were trypsinized, and the medium was renewed 2–3 times per week. The cytotoxicity of compounds was assessed by colorimetric CellTilter 96® Aqueous One Solution Cell Proliferation Assay (Promega, USA), containing a tetrazolium compound according to the manufacturer’s instructions. In brief, 7 × 10^3 HaCaT cells per well were plated on 96-well plates and incubated per night to adhere to the cultured dishes. After that time, different concentrations of the tested compounds ranging from 512 to 1 μg/mL were applied to the wells. Every compound was medium-soluble at 37 °C; thus, the non-treated cells were negative control. Serial dilutions of the tested compounds were always prepared before use. Cells were incubated with drugs for 24 h, and then, 20 μL of the CellTiter 96®AqueousOne Solution Reagent was added to each well containing treated cells in 100 µl of culture medium. After 4 h of incubation at 37 °C, the absorbance at 490 nm was recorded using a microplate reader (Epoch, BioTek Instruments, USA). The quantity of formazan product as measured by the amount of 490 nm absorbance is directly proportional to the number of living cells in culture. Benzalkonium chloride (Sigma-Aldrich, Germany) was used as reference compound. At least three independent experiments with two replicates were conducted for each concentration of a compound, and the IC50 values were calculated using GraphPad Prism 8 software.

The subject of series [9] is S. aureus ATCC 33591. Format: cell-based, Staphylococcus aureus. The conditions noted are these: S. aureus ATCC 33591, 18 h, 37 °C. As for the experimental part: as §1, §2

Values after ≈ are worked out from the molar mass of the structure shown. Read-outs that look alike come from different tables or passages of the source. Where a SMILES comes first, the peptide text is derived from it. The star is where a group is joined. Stearoyl = CCCCCCCCCCCCCCCCCC(=O)*; Palmitoyl = CCCCCCCCCCCCCCCC(=O)*

Usually MIC stands for the least concentration at which growth counts as inhibited. One may read the HC50 as the concentration that lyses half of the red blood cells. Lower therefore signals more damage to red cells. By IC50 is commonly meant the concentration at which inhibition is half-maximal. A higher IC50 goes with a need for much substance. As to `CCCCCCCCCCCCCCCCCC(=O)N[C@@H](CCCCN)C(=O)N[C@@H](CCCCN)C(N)=O` [Peptide 2S, C18-KK-NH2], the minimal inhibitory concentration (MIC) amounted to 32 µg/mL (≈ 59.3 µM) in [1] (ATCC BAA 1605, 18 h); 4 µg/mL (≈ 7.41 µM) in series [2] (ATCC 700221, 18 h); 8 µg/mL (≈ 14.8 µM) in series [3] (ATCC 15126, 24 h); 128 µg/mL (≈ 237 µM) in [5] (ATCC 9027, 18 h); 32 µg/mL (≈ 59.3 µM) in [6] (ATCC 13048, 18 h); 64 µg/mL (≈ 119 µM) in [7] (ATCC 700603, 18 h). In [4], the HC50 was found to be 21.88 ± 0.68 µg/mL. In [8], this compound had an IC50 of 4.33 ± 0.79 µg/mL (≈ 8.02 µM).
In the case of `CCCCCCCCCCCCCCCC(=O)N[C@@H](CCCCN)C(=O)N[C@@H](CCCCN)C(=O)N[C@@H](CCCCN)C(N)=O` [Peptide 3P, C16-KKK-NH2], the MIC in [1] (ATCC BAA 1605, 18 h) came to 64 µg/mL (≈ 100 µM); in [2] (ATCC 700221, 18 h), 8 µg/mL (≈ 12.5 µM); in series [3] (ATCC 15126, 24 h), 64 µg/mL (≈ 100 µM); in series [5] (ATCC 9027, 18 h), 32 µg/mL (≈ 50 µM); in series [6] (ATCC 13048, 18 h), 8 µg/mL (≈ 12.5 µM); in series [7] (ATCC 700603, 18 h), 32 µg/mL (≈ 50 µM). This compound also had an HC50 in [4] of 135.46 ± 8.69 µg/mL. Further, in series [8], the IC50 worked out at 45.40 ± 20.45 µg/mL (≈ 70.9 µM).
`CCCCCCCCCCCCCCCCCC(=O)N[C@@H](CCCCN)C(=O)N[C@@H](CCCCN)C(=O)N[C@@H](CCCCN)C(N)=O` [Peptide 3S, C18-KKK-NH2]: the MIC in series [1] (ATCC BAA 1605, 18 h) was 32 µg/mL (≈ 47.9 µM); in [2] (ATCC 700221, 18 h), 4 µg/mL (≈ 5.99 µM); in series [3] (ATCC 15126, 24 h), 8 µg/mL (≈ 12 µM); in [5] (ATCC 9027, 18 h), 16 µg/mL (≈ 24 µM); in series [6] (ATCC 13048, 18 h) it was 4 µg/mL (≈ 5.99 µM); in series [7] (ATCC 700603, 18 h), 8 µg/mL (≈ 12 µM). The compound also yielded an HC50 in [4] of 32.11 ± 1.54 µg/mL. In series [8], this compound showed an IC50 of 88.51 ± 4.72 µg/mL (≈ 132 µM).
Consider `CCCCCCCCCCCCCCCC(=O)N[C@@H](CCCCN)C(=O)N[C@@H](CCCCN)C(=O)N[C@@H](CCCCN)C(=O)N[C@@H](CCCCN)C(N)=O` [Peptide 4P, C16-KKKK-NH2] (Palmitoyl-KKKK-NH2), for which the MIC in [1] (ATCC BAA 1605, 18 h) was found to be 64 µg/mL (≈ 83.3 µM); in [2] (ATCC 700221, 18 h) it was 4 µg/mL (≈ 5.21 µM); in series [3] (ATCC 15126, 24 h) it was 64 µg/mL (≈ 83.3 µM); in [5] (ATCC 9027, 18 h) it was 32 µg/mL (≈ 41.7 µM); in series [6] (ATCC 13048, 18 h), 8 µg/mL (≈ 10.4 µM); in series [7] (ATCC 700603, 18 h) it was 32 µg/mL (≈ 41.7 µM). This compound also registered an HC50 in series [4] of more than 512 µg/mL. Besides, the IC50 in series [8] is recorded as 126.80 ± 27.26 µg/mL (≈ 165 µM).
For the compound `CCCCCCCCCCCCCCCCCC(=O)N[C@@H](CCCCN)C(=O)N[C@@H](CCCCN)C(=O)N[C@@H](CCCCN)C(=O)N[C@@H](CCCCN)C(N)=O` [Peptide 4S, C18-KKKK-NH2] (Stearoyl-KKKK-NH2), the MIC worked out at 16 µg/mL (≈ 20.1 µM) in series [1] (ATCC BAA 1605, 18 h); 4 µg/mL (≈ 5.02 µM) in series [2] (ATCC 700221, 18 h); 16 µg/mL (≈ 20.1 µM) in series [3] (ATCC 15126, 24 h); 8 µg/mL (≈ 10 µM) in series [5] (ATCC 9027, 18 h); 4 µg/mL (≈ 5.02 µM) in series [6] (ATCC 13048, 18 h); 8 µg/mL (≈ 10 µM) in series [7] (ATCC 700603, 18 h). For the same compound, the HC50 in [4] was 48.44 ± 4.12 µg/mL. The compound also had an IC50 in [8] of 155.34 ± 11.20 µg/mL (≈ 195 µM).
As for “benzalkonium chloride [BAC, reference compound]”, the MIC in [1] (A. baumannii ATCC BAA 1605, 18 h, 37 °C) worked out at 16 µg/mL; in [2] (E. faecium ATCC 700221, 18 h, 37 °C), 4 µg/mL; in series [3] (C. glabrata ATCC 15126, 24 h, 37 °C), 4 µg/mL; in series [5] (P. aeruginosa ATCC 9027, 18 h, 37 °C) it was 32 µg/mL; in series [6] (K. aerogenes ATCC 13048, 18 h, 37 °C) it was 16 µg/mL; in series [7] (K. pneumoniae ATCC 700603, 18 h, 37 °C), 16 µg/mL. Besides, in [9], the MIC turned out to be 4 µg/mL. In series [8] (HaCaT), the IC50 turned out to be 11.70 ± 0.76 µg/mL.
